Measurements: PubChem BioAssay (NCI)
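Briefly, cells in 96-well plates were exposed to five compound concentrations for 48 h, and endpoints were estimated by linear interpolation. TGI marks complete inhibition of growth.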

How the values were obtained:
Assay in all cases: inhibition of tumour cell growth, NCI panel, 48 h
TK-10 renal = tested on: TK-10 renal
DU-145 prostate = tested on: DU-145 prostate
M14 melanoma = tested on: M14 melanoma
MDA-N = tested on: MDA-N
HL-60(TB) leukemia = tested on: HL-60(TB) leukemia
IGROV1 ovarian = tested on: IGROV1 ovarian
KM12 colon = tested on: KM12 colon
RPMI-8226 leukemia = tested on: RPMI-8226 leukemia
SF-268 CNS = tested on: SF-268 CNS
SN12C renal = tested on: SN12C renal
HT29 colon = tested on: HT29 colon
ACHN renal = tested on: ACHN renal
MALME-3M melanoma = tested on: MALME-3M melanoma

## COc1cc(/C=C2\N=C(c3ccccc3)N(/N=C/c3cc4cc(C)ccc4nc3Cl)C2=O)ccc1O
TK-10 renal
  TGI: > 100 µM
DU-145 prostate
  TGI: > 100 µM
M14 melanoma
  TGI: > 100 µM
MDA-N
  TGI: 32 µM
HL-60(TB) leukemia
  TGI: 76.6 µM
IGROV1 ovarian
  TGI: > 100 µM
KM12 colon
  TGI: > 100 µM
RPMI-8226 leukemia
  TGI: 80.8 µM
SF-268 CNS
  TGI: > 100 µM
SN12C renal
  TGI: 77.1 µM
HT29 colon
  TGI: > 100 µM
ACHN renal
  TGI: > 100 µM

## N=C1SCCS1
TK-10 renal
  TGI: > 100 µM
M14 melanoma
  TGI: > 100 µM
MALME-3M melanoma
  TGI: > 100 µM
HL-60(TB) leukemia
  TGI: > 100 µM
IGROV1 ovarian
  TGI: > 100 µM
KM12 colon
  TGI: > 100 µM
RPMI-8226 leukemia
  TGI: > 100 µM
SF-268 CNS
  TGI: > 100 µM
SN12C renal
  TGI: > 100 µM
HT29 colon
  TGI: > 100 µM
ACHN renal
  TGI: > 100 µM

## CCOC(=O)/C(C#N)=N\Nc1ccc(-n2c(C)nc3ccc(Br)cc3c2=O)cc1
TK-10 renal
  TGI: > 100 µM
DU-145 prostate
  TGI: > 100 µM
M14 melanoma
  TGI: > 100 µM
MDA-N
  TGI: > 100 µM
HL-60(TB) leukemia
  TGI: > 100 µM
IGROV1 ovarian
  TGI: > 100 µM
KM12 colon
  TGI: > 100 µM
RPMI-8226 leukemia
  TGI: > 100 µM
SF-268 CNS
  TGI: > 100 µM
SN12C renal
  TGI: > 100 µM
HT29 colon
  TGI: > 100 µM
ACHN renal
  TGI: > 100 µM

## O=[N+]([O-])c1ccc2nc(/C=C(\O)c3ccccc3)c(/C=C(\O)c3ccc(Cl)cc3)nc2c1
TK-10 renal
  TGI: > 100 µM
DU-145 prostate
  TGI: > 100 µM
M14 melanoma
  TGI: > 100 µM
MALME-3M melanoma
  TGI: > 100 µM
MDA-N
  TGI: > 100 µM
IGROV1 ovarian
  TGI: > 100 µM
KM12 colon
  TGI: > 100 µM
SF-268 CNS
  TGI: > 100 µM
SN12C renal
  TGI: > 100 µM
HT29 colon
  TGI: > 100 µM
ACHN renal
  TGI: > 100 µM

## O=c1[nH]nc(Cc2ccc(Cl)cc2)n1Nc1ccccc1
TK-10 renal
  TGI: > 100 µM
DU-145 prostate
  TGI: 27.8 µM
M14 melanoma
  TGI: > 100 µM
MALME-3M melanoma
  TGI: > 100 µM
MDA-N
  TGI: > 100 µM
IGROV1 ovarian
  TGI: > 100 µM
KM12 colon
  TGI: > 100 µM
SN12C renal
  TGI: > 100 µM
HT29 colon
  TGI: > 100 µM
ACHN renal
  TGI: > 100 µM

## COc1ccc2[nH]c3c(c2c1)CCc1ccccc1-3
TK-10 renal
  TGI: > 100 µM
DU-145 prostate
  TGI: > 100 µM
M14 melanoma
  TGI: > 100 µM
MALME-3M melanoma
  TGI: > 100 µM
MDA-N
  TGI: > 100 µM
IGROV1 ovarian
  TGI: > 100 µM
KM12 colon
  TGI: > 100 µM
SF-268 CNS
  TGI: > 100 µM
SN12C renal
  TGI: > 100 µM
HT29 colon
  TGI: > 100 µM
ACHN renal
  TGI: > 100 µM

## CC(C)(C)OC(=O)N1CCC[C@H]1CSC[C@@H]1CCCN1C(=O)OC(C)(C)C
TK-10 renal
  TGI: > 100 µM
DU-145 prostate
  TGI: > 100 µM
M14 melanoma
  TGI: 38.2 µM
MALME-3M melanoma
  TGI: 63.5 µM
MDA-N
  TGI: > 100 µM
IGROV1 ovarian
  TGI: > 100 µM
KM12 colon
  TGI: 48.2 µM
SF-268 CNS
  TGI: > 100 µM
SN12C renal
  TGI: > 100 µM
HT29 colon
  TGI: 34.9 µM
ACHN renal
  TGI: 82.2 µM

## COc1cc(O)c2c(=O)cc(C3(OC(C)=O)C=CC(OC4OC(CO)C(O)C(O)C4O)C=C3)oc2c1 (centres undefined)
TK-10 renal
  TGI: > 100 µM
DU-145 prostate
  TGI: > 100 µM
M14 melanoma
  TGI: > 100 µM
MALME-3M melanoma
  TGI: > 100 µM
MDA-N
  TGI: > 100 µM
HL-60(TB) leukemia
  TGI: > 100 µM
IGROV1 ovarian
  TGI: > 100 µM
KM12 colon
  TGI: > 100 µM
RPMI-8226 leukemia
  TGI: > 100 µM
SN12C renal
  TGI: > 100 µM
HT29 colon
  TGI: > 100 µM
ACHN renal
  TGI: > 100 µM

## CC(=O)Nc1ccc2c(c1)C(=Nc1ccc(C(=O)O)cc1)c1ccccc1-2
TK-10 renal
  TGI: > 100 µM
DU-145 prostate
  TGI: > 100 µM
M14 melanoma
  TGI: > 100 µM
MALME-3M melanoma
  TGI: > 100 µM
MDA-N
  TGI: > 100 µM
IGROV1 ovarian
  TGI: > 100 µM
KM12 colon
  TGI: > 100 µM
RPMI-8226 leukemia
  TGI: > 100 µM
SF-268 CNS
  TGI: > 100 µM
SN12C renal
  TGI: > 100 µM
HT29 colon
  TGI: > 100 µM
ACHN renal
  TGI: > 100 µM

## NC1=NC(=O)[C@H](CSCc2ccccc2)N1C(=O)OCc1ccccc1
TK-10 renal
  TGI: > 100 µM
DU-145 prostate
  TGI: > 100 µM
MALME-3M melanoma
  TGI: > 100 µM
MDA-N
  TGI: > 100 µM
HL-60(TB) leukemia
  TGI: > 100 µM
IGROV1 ovarian
  TGI: > 100 µM
KM12 colon
  TGI: > 100 µM
SF-268 CNS
  TGI: > 100 µM
SN12C renal
  TGI: > 100 µM
HT29 colon
  TGI: > 100 µM
ACHN renal
  TGI: > 100 µM

## CCCN=C1S/C(=C/c2ccc(OC)c(OC)c2)C(=O)N1c1ccccc1
TK-10 renal
  TGI: 55.2 µM
M14 melanoma
  TGI: > 100 µM
MALME-3M melanoma
  TGI: > 100 µM
MDA-N
  TGI: > 100 µM
HL-60(TB) leukemia
  TGI: > 100 µM
IGROV1 ovarian
  TGI: > 100 µM
KM12 colon
  TGI: > 100 µM
RPMI-8226 leukemia
  TGI: > 100 µM
SF-268 CNS
  TGI: > 100 µM
SN12C renal
  TGI: > 100 µM
HT29 colon
  TGI: > 100 µM
ACHN renal
  TGI: > 100 µM

## CC1=NN(c2ccccc2Cl)C2(C1)SCC(=O)N2c1nc2ccccc2s1 (centres undefined)
TK-10 renal
  TGI: > 100 µM
DU-145 prostate
  TGI: > 100 µM
M14 melanoma
  TGI: > 100 µM
MALME-3M melanoma
  TGI: > 100 µM
MDA-N
  TGI: > 100 µM
IGROV1 ovarian
  TGI: > 100 µM
KM12 colon
  TGI: > 100 µM
RPMI-8226 leukemia
  TGI: > 100 µM
SF-268 CNS
  TGI: > 100 µM
SN12C renal
  TGI: > 100 µM
HT29 colon
  TGI: > 100 µM
ACHN renal
  TGI: > 100 µM

## COC(=O)C(NC(=O)C12CCC(C)(C(=O)O1)C2(C)C)c1cc(C(C)(C)C)c(O)c(C(C)(C)C)c1 (centres undefined)
TK-10 renal
  TGI: > 100 µM
DU-145 prostate
  TGI: > 100 µM
M14 melanoma
  TGI: > 100 µM
MALME-3M melanoma
  TGI: > 100 µM
HL-60(TB) leukemia
  TGI: 32.1 µM
IGROV1 ovarian
  TGI: > 100 µM
KM12 colon
  TGI: > 100 µM
RPMI-8226 leukemia
  TGI: > 100 µM
SF-268 CNS
  TGI: > 100 µM
HT29 colon
  TGI: > 100 µM
ACHN renal
  TGI: > 100 µM

## c1ccc(NC2(c3nnnn3C3CCCCC3)CCNCC2)cc1
TK-10 renal
  TGI: 33.3 µM
DU-145 prostate
  TGI: > 100 µM
M14 melanoma
  TGI: 35.8 µM
MALME-3M melanoma
  TGI: 32.4 µM
HL-60(TB) leukemia
  TGI: 31.5 µM
IGROV1 ovarian
  TGI: > 100 µM
KM12 colon
  TGI: 31.3 µM
RPMI-8226 leukemia
  TGI: 59.6 µM
SF-268 CNS
  TGI: > 100 µM
SN12C renal
  TGI: 90.1 µM
HT29 colon
  TGI: 35.8 µM
ACHN renal
  TGI: 52.6 µM

## COc1ccc2c(c1)OCC1Cc3cccc(OC)c3OC21 (centres undefined)
TK-10 renal
  TGI: > 100 µM
DU-145 prostate
  TGI: > 100 µM
M14 melanoma
  TGI: > 100 µM
MALME-3M melanoma
  TGI: > 100 µM
MDA-N
  TGI: > 100 µM
IGROV1 ovarian
  TGI: > 100 µM
KM12 colon
  TGI: > 100 µM
RPMI-8226 leukemia
  TGI: > 100 µM
SF-268 CNS
  TGI: > 100 µM
SN12C renal
  TGI: > 100 µM
HT29 colon
  TGI: > 100 µM

## COc1ccc(-n2c(-c3ccccc3)cc(-c3cccs3)c2-c2cccs2)cc1
TK-10 renal
  TGI: > 100 µM
DU-145 prostate
  TGI: > 100 µM
M14 melanoma
  TGI: > 100 µM
IGROV1 ovarian
  TGI: > 100 µM
KM12 colon
  TGI: > 100 µM
RPMI-8226 leukemia
  TGI: > 100 µM
SF-268 CNS
  TGI: > 100 µM
SN12C renal
  TGI: > 100 µM
HT29 colon
  TGI: > 100 µM
ACHN renal
  TGI: > 100 µM

## O=C1c2cc([N+](=O)[O-])cnc2S(=O)(=O)N1c1ccc(Oc2ccccc2)cc1
TK-10 renal
  TGI: > 100 µM
DU-145 prostate
  TGI: > 100 µM
M14 melanoma
  TGI: > 100 µM
MALME-3M melanoma
  TGI: > 100 µM
HL-60(TB) leukemia
  TGI: > 100 µM
IGROV1 ovarian
  TGI: > 100 µM
KM12 colon
  TGI: > 100 µM
RPMI-8226 leukemia
  TGI: > 100 µM
SN12C renal
  TGI: > 100 µM
ACHN renal
  TGI: > 100 µM

## COC(=O)C1CCCCCCCCCCC12SCCCS2 (centres undefined)
TK-10 renal
  TGI: 41.6 µM
DU-145 prostate
  TGI: 39.2 µM
M14 melanoma
  TGI: 31 µM
MALME-3M melanoma
  TGI: 37.6 µM
MDA-N
  TGI: > 100 µM
IGROV1 ovarian
  TGI: 39.1 µM
KM12 colon
  TGI: 36 µM
SF-268 CNS
  TGI: 56.5 µM
SN12C renal
  TGI: 31.8 µM
HT29 colon
  TGI: 91.5 µM
ACHN renal
  TGI: 40.2 µM

## CC(=O)Nc1ccccc1S(=O)(=O)c1c(-c2c(C)c(Cl)c(C)c(Cl)c2C)noc1C
TK-10 renal
  TGI: 73.7 µM
DU-145 prostate
  TGI: > 100 µM
M14 melanoma
  TGI: > 100 µM
MALME-3M melanoma
  TGI: > 100 µM
MDA-N
  TGI: > 100 µM
IGROV1 ovarian
  TGI: > 100 µM
KM12 colon
  TGI: > 100 µM
RPMI-8226 leukemia
  TGI: > 100 µM
SF-268 CNS
  TGI: > 100 µM
SN12C renal
  TGI: > 100 µM
HT29 colon
  TGI: > 100 µM
ACHN renal
  TGI: > 100 µM
